Test results as given in US12215389B2, “Compositions for detecting epigenetic modifications” (EXACT SCIENCES CORPORATION, priority 2007, dated 2025).

Test system: methylated gene promoters in plasma DNA
Assay: Real-time MSP on plasma DNA
Parameters: species or system human
Settings: for % Specificity (all 59 controls), plasma set 1: plasma training set 1; for % Sensitivity adenomas plasma set 2: increased plasma equivalent of DNA per real-time MSP assay / % Specificity (all 89 controls), plasma set 2: increased plasma equivalent of DNA per real-time MSP assay: plasma training set 2
Procedure: 10 ml of blood was obtained per individual using EDTA Vacutainer™ tubes. Individuals with no suspicious findings, adenomas or carcinomas based on colonoscopy were enrolled in the present study. Within 4 hrs from the blood drawing, the plasma fraction was separated from the cell fraction by centrifugation at 1500 g for 15 min (4° C.). The plasma was transferred to new tubes and once again centrifuged (1500 g, 15 min, 4° C.), after which the supernatant was transferred to new tubes and stored at −80° C. until further use. Samples were shipped on dry ice.
DNA isolation from plasma samples (1.2 to 6 ml) was performed using an upscaled phenol-chloroform DNA isolation method using the 15 ml of Heavy Phase lock Gel tubes (PLG tubes) (Eppendorf, cat #0032 005.152) or alternatively the ChargeSwitch® gDNA 1 ml serum kit from Invitrogen (cat #CS11040).
Plasma samples were thawed and 1/10 volume of 10× buffer (240 mM EDTA (pH=8.0), 750 mM NaCl), 1/10 volume of 10% SDS and 5 μl of Proteinase K (20 mg/ml stock solution) per 1 ml of sample (e.g. 15 μl for 3 ml of sample) was added to each plasma sample. This mixture was incubated overnight at 48° C. at constant shaking (200 RPM).
Subsequently the PLG tube was centrifuged at 2500 RCF for 3 min, sample mixture and approximately the same volume of phenol/chloroform (Invitrogen, cat #15593049) were added to it. This solution was briefly vortexed, mixed for 10 min using a tube rocker at room temperature and centrifuged for 5 min at 2500 RCF. In case the retrieved sample volume was ≤4 ml, an equal volume of phenol/chloroform was added. The upper aqueous layer was phenol/chloroform-treated for a second time.
DNA was precipated from the upper aqueous layer by adding 5 μl glycogen, 1/10 volume of 7.5 M Ammonium Acetate and 2-2.5 volumes of cold (−20° C.) 100% ethanol. Tubes were gently inverted and incubated at −20° C. for at least 1 h, followed by a centrifugation step at 17000 RCF for 30 min (4° C.). Ethanol was carefully removed by pipetting. Pellets were washed with 2 ml freshly prepared 70% ethanol, vortexed gently and submitted to a centrifugation step at 17000 RCF for 15 min at 4° C. After careful removal of the remaining ethanol, pellets were air dried and resuspended in 45 μl of LoTE pH 8.0. The isolated DNA is stored at −80° C. until further processing.
The complete content of DNA isolated in above procedure was subjected to sodium bisulfite treatment (BT) using the EZ-96 DNA Methylation kit from Zymo Research (Cat #D5003) performed on a pipetting robot (Tecan Freedom EVOII, Roma, Liha, Mca, Te-Vacs). Briefly, 45 μl of plasma DNA sample was mixed with 5 μl of M-Dilution Buffer (provided in kit) and incubated at 37° C. for 15 min shaking at 1100 RPM. This mixture was further incubated with 100 μl of diluted CT conversion reagent (provided in kit) shaking at 70° C. for 3 hours (protected from light). Subsequently the modified DNA was desalted and desulfonated according to manufacturer's instructions and eluted in either 40 μl or 20 μl of Tris-HCl 1 mM pH8.0, depending on the applied concentration procedure. The eluted material was stored at −80° C. until further processing.
2.4 μl of the modified DNA was added to a PCR mix (total volume 12 μl) containing home-made buffer solution (final concentrations are summarized: 16.6 mM (NH4)2SO4, 67 mM Tris (pH 8.8), 6.7 mM MgCl2, 10 mM β-mercaptoethanol), dNTPs (5 mM; Amersham Biosciences cat #27-2035-02), methylation specific forward primer (6 ng), methylation specific reverse primer (18 ng), molecular beacon (0.16 μM) and Jumpstart DNA Taq polymerase (0.4 units; Sigma Cat #D9307).
A standard curve was included (9.6×10^5—9.6 copies) to determine copy numbers of unknown samples by interpolation of their Ct values to the standard curve.
DNA was isolated following the upscaled phenol-chloroform procedure; subsequently the whole DNA sample was modified as described above.

| Substance | % Specificity (all 59 controls), plasma set 1 [%] | % Sensitivity adenomas plasma set 2: increased plasma equivalent of DNA per real-time MSP assay [%] | % Specificity (all 89 controls), plasma set 2: increased plasma equivalent of DNA per real-time MSP assay [%] |
| --- | --- | --- | --- |
| GATA5 (DNA AGTTCGTTTTTAGGTTAGTTTTCGGC; listed as DNA, chemistry not given here) | 97 | 6 | 99 |
| SFRP1 (DNA TGTAGTTTTCGGAGTTAGTGTCGCGC; listed as DNA, chemistry not given here) | 98 | 2 | 96 |
